Reference: BigSolDB 2.1

c1ccc2[nH]c(-c3cscn3)nc2c1
solubility (mole fraction)
Conditions | 283.15 K | 288.15 K | 293.15 K | 298.15 K | 303.15 K | 308.15 K | 313.15 K | 318.15 K | 323.15 K
in 2-butanone | 0.0012 | 0.00137 | 0.00151 | 0.00161 | 0.00186 | 0.00209 | 0.00223 | 0.00241 | 0.0025
in acetone | 0.000605 | 0.000711 | 0.000796 | 0.000936 | 0.00105 | 0.00119 | 0.00139 | 0.00153 | 0.00173
in acetonitrile | 0.000112 | 0.00012 | 0.000145 | 0.000149 | 0.000209 | 0.000253 | 0.000309 | 0.000339 | 0.000403
in ethanol | 0.00128 | 0.0014 | 0.00153 | 0.00163 | 0.00192 | 0.00213 | 0.00234 | 0.00274 | 0.00295
in ethyl acetate | 0.000435 | 0.000523 | 0.000638 | 0.000704 | 0.000825 | 0.000956 | 0.00109 | 0.00116 | 0.00127
in isobutanol | 0.000905 | 0.00104 | 0.00123 | 0.00144 | 0.00176 | 0.00202 | 0.0023 | 0.00258 | 0.00294
in isopropanol | 0.000699 | 0.000762 | 0.00089 | 0.000954 | 0.00118 | 0.00136 | 0.0016 | 0.00182 | 0.00198
in methanol | 0.00133 | 0.00142 | 0.00158 | 0.00167 | 0.00211 | 0.00219 | 0.00244 | 0.00279 | 0.00301
in methyl acetate | 0.000378 | 0.000515 | 0.000608 | 0.000636 | 0.000758 | 0.000822 | 0.000899 | 0.000953 | 0.00117
in n-butanol | 0.0016 | 0.0018 | 0.00193 | 0.0022 | 0.00266 | 0.0029 | 0.00337 | 0.00371 | 0.00416
in n-butyl acetate | 0.000445 | 0.000544 | 0.000646 | 0.000724 | 0.000881 | 0.00098 | 0.00114 | 0.00122 | 0.00136
in n-propanol | 0.00137 | 0.00148 | 0.00173 | 0.00181 | 0.00217 | 0.00246 | 0.00274 | 0.00303 | 0.00347
